“Also recorded” adds a separate entry of the source.
Tests used:
CHO C12-32 = assay: Luciferase inducibility in CRE-pretest cell clone C12-32; assay type: cell-based, Chinese hamster; conditions: 20 μM forskolin, 5 hours
Experimental: (This plasmid differs from the pADneo2-C6-BGL described in Example 1) in that the section containing the 6 CRE-elements is duplicated and the β-globin promotor is replaced by the TK-promotor (see Example 1 b)). In order to do this the SalI-HindIII-β-globin-promotor-fragment was replaced by a similarly cut fragment containing the TK-promotor (McKnight, 1980)).
The transfection and testing of the cell clones were carried out as in Example 7 a).

COS-7 cells = assay: Induction of TRE-sensor-DNA (luciferase) in transiently transfected pretest cells, COS-7; conditions: COS-7
Experimental: (§1) Approximately 1×10^7 cells per transfection were detached from the surface of the culture dish using trypsin and centrifuged for 5 minutes at 1200 rpm at ambient temperature (Heraeus Minifuge), washed once with 5 ml of serum-free medium, centrifuged for 5 minutes at 1200 rpm and suspended in 1 ml of serum-free medium. Then the cells were mixed with 250 μg/ml DEAE-dextrane, 5 μg plasmid DNA and 50 μg/ml chloroquin, incubated for 30 minutes at 37° C., washed once with medium containing no FCS and incubated overnight at 37° C. with 10 ml of fresh serum-containing medium. Then the medium was changed and after 4 hours the cells were induced, either with 10 ng TPA/ml medium or with 20 μM forskolin. […] The cells were lysed by the addition of 100 μl lysing buffer (1% Triton X-100, 25 mM glycylglycine pH 7.8, 15 mM MgSO4, 4 mM EDTA and 1 mM […]), the lysate was centrifuged for 5 minutes and the supernatant was transferred into a fresh test tube. […] The measuring time for light emission was 10 seconds.
(§2) The cell lines A549, HeLa and COS-7 were transiently transfected as described above by the addition of plasmid pBHluc1.3 and induced by the addition of TPA. Cells which were only transfected but not induced were used as a negative control.
(§3) The cell lines A549, HeLa and COS-7 were transiently transfected by the addition of plasmid pADneo(3TRE)BGluci and induced by the addition of TPA or forskolin. Once again, cells which were only transfected but not induced were used as a negative control.
(§4) The cell lines COS-7 and A549 were transiently transfected by the addition of plasmid pADneo(3×TREd16)BGluci, pADneo(3×TREd21)BGluci, pADneo(3×TREd24)BGluci, pADneo(3×TREd34)BGluci, pADneo(6×TREd16)BGluci, pADneo(6×TREd21)BGluci, pADneo(6×TREd24)BGluci or pADneo(6×TREd34)BGluci and induced by the addition of TPA or forskolin.

HeLa cells = assay: Induction of TRE-sensor-DNA (luciferase) in transiently transfected pretest cells, HeLa; conditions: 10 ng TPA/ml or 20 μM forskolin, 18 h
Experimental: as §1, §2, §3

cell line CHO C6-13 = assay: Luciferase expression in CRE-pretest cell line CHO C6-13
Experimental: The transfection by electroporation was carried out as follows: after removal of the medium the cells were detached from the surface by means of a trypsin/PBS solution, suspended in medium and pelleted for 5 minutes at 250×g. The cells were washed in HBS (10 mM HEPES pH 7.4, 150 mM NaCl) and pelleted by centrifuging. The cells were suspended in HBS in a density of 1×10^7 cells/ml. 0.8 ml of cell suspension were mixed with 20 μg of DNA of the plasmid pADneo2-C6-BGL linearised with ScaI and transferred into an electroporation dish. […] After the electroporation the cells were diluted in the medium mentioned above, 20,000 cells per 90 mm culture dish was sown and incubated overnight at 37° C.
Two batches of each were treated with 20 μM forskolin and incubated for a further 5 hours at 37° C. Then the medium was removed from all the cells and the cells were washed with PBS.
Cells of the cell line CHO C6-13 were treated for 3 hours with various substances which alter the intracellular concentration of cAMP or IP3 /DAG or simulate a change in concentration, and also treated with receptor-specific agonists which influence the above-mentioned signal transduction mechanisms.

A549 cells [1] = conditions: Voraberger et al., 1991; cited from earlier work
[2] = target: human dopamine D1-receptor (Homo sapiens, UniProt P21728); assay: Induction of pADneo2-C6-BGL (CRE) via dopamine-D1-receptor in co-transfected COS-7 cells; conditions: COS-7; 20 μM forskolin or 1 μM apomorphine, 18 h
Sequence of human dopamine D1-receptor (P21728 whole entry): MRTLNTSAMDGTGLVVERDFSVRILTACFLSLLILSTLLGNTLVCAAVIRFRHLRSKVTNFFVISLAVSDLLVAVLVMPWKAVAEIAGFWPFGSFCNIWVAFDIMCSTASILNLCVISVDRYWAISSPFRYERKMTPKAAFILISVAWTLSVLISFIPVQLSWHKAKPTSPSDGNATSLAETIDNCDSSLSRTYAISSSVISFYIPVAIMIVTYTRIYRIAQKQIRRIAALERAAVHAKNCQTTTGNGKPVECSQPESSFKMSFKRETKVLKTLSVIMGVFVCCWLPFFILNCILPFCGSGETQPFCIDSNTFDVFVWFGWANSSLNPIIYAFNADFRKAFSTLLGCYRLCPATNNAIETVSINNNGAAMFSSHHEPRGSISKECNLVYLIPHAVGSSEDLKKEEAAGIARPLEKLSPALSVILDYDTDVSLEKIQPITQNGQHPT

human 5HT2-receptor = human 5HT2-receptor (Homo sapiens, UniProt P28223); assay: Induction of pADneo2-C6-BGL (CRE) via 5-HT2-receptor in co-transfected COS-7 cells; assay type: cell-based; conditions: 20 μM forskolin or 10 μ α-methylserotonin-maleate
Sequence of human 5HT2-receptor (P28223 whole entry): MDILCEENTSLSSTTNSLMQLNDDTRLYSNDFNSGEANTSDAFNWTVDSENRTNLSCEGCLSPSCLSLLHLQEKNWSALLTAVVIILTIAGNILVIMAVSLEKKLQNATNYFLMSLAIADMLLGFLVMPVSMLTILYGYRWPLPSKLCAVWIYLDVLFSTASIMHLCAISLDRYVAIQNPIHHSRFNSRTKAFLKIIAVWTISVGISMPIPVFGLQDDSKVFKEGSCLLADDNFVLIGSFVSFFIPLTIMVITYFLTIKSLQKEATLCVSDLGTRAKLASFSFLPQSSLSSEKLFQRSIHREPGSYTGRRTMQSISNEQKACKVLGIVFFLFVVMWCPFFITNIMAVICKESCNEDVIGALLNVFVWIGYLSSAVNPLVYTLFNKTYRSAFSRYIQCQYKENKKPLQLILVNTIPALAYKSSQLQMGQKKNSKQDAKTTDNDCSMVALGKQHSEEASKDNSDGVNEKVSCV
Experimental: Induction was carried out with i) 20 μM forskolin (Sigma P8139), ii) 10 μα-methylserotonin-maleate (RBI M-110), and iii) 10 μα-methylserotonin-maleate and 10 μM ketanserin-tartrate (RBI S-006). […] It follows, from the above results, that, depending on 5-HT2 -receptors, only regulation elements which respond to IP3 /DAG (TRE), but not regulation elements which respond to cAMP (CRE) are selectively activated.

cell line A20 = assay: Luciferase induction in stable TRE-pretest cell line A20 (A549, pBHluc1.3); conditions: A20
Experimental: In order to produce a stable (pre-)test cell line for substances which influence the expression of the luciferase gene by direct or receptor-mediated modulation of the IP3 /DAC-signal transduction pathway, A549 cells were simultaneously transfected with the plasmid pBHluc1.3 and the selection plasmid pRSVneo by electroporation as follows: after removal of the medium the cells were detached from the surface by means of a trypsin/PBS solution, suspended in medium and sedimented for 5 minutes at 250×g. […] 0.8 ml of cell suspension were combined with 20 μg of pBHluc1.3 and 2 μg of pRSVneo. Both plasmids had previously been linearised with BamHI.
(§5) 15-20 days after transfection, individual cell clones were transferred into 96-well microtitre plates and further cultivated. […] Approximately 40,000 cells in each clone were sown, in a procedure repeated 6 times, in 200 μl per well of a light-impervious 96-well microtitre plate coated with tissue culture (Microlite™, Dynatech Laboratories) and incubated overnight at 37° C. Three mixtures were treated with 10 ng TPA/ml and incubated for a further 8 hours. Then the medium was removed and the cells were washed twice with PBS.
(§6) The pretest cell line A20 was transfected, as described under a), by electroporation with the plasmid pAHyg-NK2, which had previously been linearised with BglII. From the day after transfection onwards, the cells were grown in selection medium, as used for the cell line A20 and additionally enriched with 150 μg/ml hygromycin B (Sigma). Individual clones were tested for inducibility of the luciferase activity as described under a).

[3] = target: T1, human neurokinin 2-receptor (Homo sapiens, UniProt P21452); assay: Luciferase activity in NK2-test cell line A20/NK2-122; conditions: A20/NK2-122
T1 sequence (P21452 1-398): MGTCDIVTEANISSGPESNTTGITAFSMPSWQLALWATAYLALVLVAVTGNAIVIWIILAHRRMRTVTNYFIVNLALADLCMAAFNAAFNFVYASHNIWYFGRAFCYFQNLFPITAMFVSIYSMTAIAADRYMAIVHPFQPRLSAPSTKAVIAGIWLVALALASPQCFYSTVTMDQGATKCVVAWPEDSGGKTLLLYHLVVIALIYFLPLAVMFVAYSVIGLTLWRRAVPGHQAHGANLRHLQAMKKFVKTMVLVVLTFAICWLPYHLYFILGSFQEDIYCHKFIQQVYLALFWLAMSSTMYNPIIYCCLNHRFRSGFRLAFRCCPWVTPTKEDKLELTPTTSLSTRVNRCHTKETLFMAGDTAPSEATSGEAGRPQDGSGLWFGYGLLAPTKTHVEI
Experimental: as §5
This Example illustrates the preparation of a test cell line for the human neurokinin 2 (NK2)-receptor which is coupled to the phospholipase C-signal transduction pathway. This test cell line makes it possible, by measurement of the luciferase activity, to identify substances which modulate the intracellular IP3 /DAG concentrations, depending on the receptor.
as §6

A549 cells [4] = assay: Induction of TRE-sensor-DNA (luciferase) in transiently transfected pretest cells, A549; conditions: A549
Experimental: as §1, §2, §3, §4

[5] = 10 ng TPA/ml or 20 μM forskolin, 18 h

With `C=C[C@@]1(C)CC(=O)[C@]2(O)[C@@]3(C)[C@@H](O)CCC(C)(C)[C@@H]3[C@H](O)[C@H](OC(C)=O)[C@@]2(C)O1` [forskolin] the “inducibility of luciferase by forskolin, clone C12-32” value (CHO C12-32) was “very high inducibility”, the “induction of pADneo(3TRE)BGluci” value (COS-7 cells; [5]) was “not by forskolin” and the “induction of pBHluc1.3 by TPA or forskolin” value (COS-7 cells; [5]) was “not by forskolin”. For the same compound, the “induction of pADneo(nTREdx)BGluci by forskolin” value (COS-7 cells; 20 μM forskolin) was “none of the constructions can be induced with forskolin”, the “induction of pADneo(3TRE)BGluci” value (HeLa cells) was “not by forskolin” and the “induction of pBHluc1.3 by TPA or forskolin” value (HeLa cells) was “not by forskolin”. The “inducibility of luciferase by forskolin, clone C6-13” value (cell line CHO C6-13; 20 μM forskolin, 5 hours) was “very high inducibility”, the “change in luciferase expression/activity” value (cell line CHO C6-13; 3 hours treatment, FIG. 33) was “increased” and the “luciferase induction at concentrations higher than 20 μM (attributed to toxic effects or excessively high cAMP level)” value (cell line CHO C6-13; > 20 μM forskolin) was “drop in luciferase induction at even higher concentrations”. The EC100 (cell line CHO C6-13; Cricetulus griseus, read-out: concentration of maximum induction of the luciferase reporter gene) was 20 µM, the “time up to which induction does not change” value (cell line CHO C6-13; after forskolin stimulation) was 4 h and the “time after stimulation at which increased luciferase activity can be detected” value (cell line CHO C6-13; forskolin, FIG. 35A) was 60 min. The “time to total induction of luciferase expression” value (cell line CHO C6-13; forskolin, FIG. 35A) was 2.5 h, the “dependency of ED50 levels on duration of treatment” value (cell line CHO C6-13; forskolin, FIG. 35B) was “virtually unaffected” and the “induction of 1.3 kb ICAM-1 fragment / pBHluc1.3” value (A549 cells [1]) was “cannot be activated by forskolin; also recorded: cannot be induced by forskolin”. The “induction of luciferase expression (CRE)” value [2] was “induced by forskolin and by apomorphine”, the “induction of luciferase expression (CRE)” value (human 5HT2-receptor) was “induced by forskolin” and the “induction of luciferase activity by forskolin” value (cell line A20) was “did not result in any induction of luciferase activity”. For the same compound, the “induction of luciferase activity by forskolin” value [3] was “did not result in any induction of luciferase activity”, the “induction of pADneo(3TRE)BGluci” value (A549 cells [4]; [5]) was “not by forskolin” and the “induction of pADneo(nTREdx)BGluci by forskolin” value (A549 cells [4]; 20 μM forskolin) was “none of the constructions can be induced with forskolin”.

Reference: patent US5854004A, “Process for screening substances capable of modulating a receptor-dependent cellular signal transmission path” (Boehringer Ingleheim GmbH, priority 1991, dated 1998)
